Source: patent publication US20050004018A1, “Use of antitumoral compound in cancer therapy” (priority 2001, published 2005)

Key:
[1] = tested on: cancer patients; details: cited from earlier work
[2] = tested on: cancer patients; experiment: phase I clinical trial, 3 hours iv infusion weekly for 3 consecutive weeks every 4 weeks; format: in vivo, human
Method: A phase I clinical trial was carried out with the following protocol:
Dose schedule: ET-743 will be administered every week as a 3hours iv infusion for 3 consecutive weeks every 4 weeks.
Starting dose and dose escalation: The starting dose will be 300 μg/m^2 weekly of ET-743 given as a intravenous infusion over 3 hours for 3 consecutive weeks every 4 weeks. Patients will be sequentially enrolled into the following dose cohorts beginning at dose Level 1. A minimum cohort size of 3 patients will be treated at each of the dose levels.
Accrual at the next higher dose level: At least 1 patient at each dose level must have completed 1 cycle of therapy and two patients must have completed treatment on day 15 before a new patient can be treated at the next highest dose. Conditions for retreatment: Patients are eligible for retreatment […] intolerable toxicity, the patient desires further treatment, and fulfill the eligibility criteria. Dose Limiting Toxicities (DLTs)
Dose limiting toxicities (DLT) will be defined as follows: • ANC <500/μL for longer than 5 days. • ANC <500/μL accompanied by fever (at least 100.5° F.). • Platelets <25,000/μL. • Any grade 3-4 nonhematological toxicity except nausea/vomiting (provided the patient is receiving an optimal antiemetic regimen consisting of dexamethasone and a serotonin antagonist on an optimal dose-schedule for prophylaxis and management), alopecia. Grade 3 or 4 elevation in trasaminases that result in either omission of 2 scheduled treatments within a cycle or delay in the initiation of a subsequent course exceeding 2 weeks. • Missing at least 2 scheduled treatments during a single course due to drug-induced toxicity (missed doses will not be made up). • Delay in the initiation of a subsequent course of treatment exceeding 2 weeks. Determination of the Maximum Tolerated Dose (MTD)
Cohort of 3 patients will be treated at each dose level. If no DLT is seen during the first cycle in the cohort of patients at any given dose level, new patients may be treated at the next higher level.
If any patient encounters drug-induced DLT during either cycle 1 or 2, a maximum of 6 patients may be treated at that level. If DLT is not observed in the additional patients, new patients may be treated at the next higher dose level.
If at least 2 patients experience DLT at any given dose level, this dose level will be considered the Maximum Tolerated Dose (MTD). However, it is possible that additional patients may experience DLT due to the timing of patient enrollment into that dose level.
Once an MTD level is established, subsequent patients should be treated at the next lower dose level. Intermediate doses may be used in some instances and flexibility is an integral part of the protocol. If two or more patients experience DLT at the lower dose level, then the MTD has again been established and additional patients will be treated at the next lower dose (unless sufficient numbers of patients have already been treated at that dose level).
The RD is defined as the highest dose level at which less than 2 of 6 patients experience DLT during cycles 1 or 2. At the RD, sufficient numbers of patients will be accrued so at least 6 patients receive at least 2 cycles of therapy, and at least 4 patients receive at least 4 courses of treatment.
This trial was launched in May 00 and last patient was included in March 02. 31 patients were treated.
Tumours included: Sarcomas (19), UOT (1), Lung (1), Ovary (4), Breast (2), Uterus (1), Melanoma (2), Colorectal (1)

[3] = tested on: human progenitor cells; details: cited from earlier work
[4] = tested on: soft tissue sarcoma cell lines; details: several soft tissue sarcoma cell lines; cited from earlier work
[5] = 3 hour weekly ×3/4 weeks infusion, per patient, number (%)

Substance: ecteinascidin 743 [ET-743]
- DLT (dose limiting toxicity) ([1]; 24hr infusion every 3 weeks): hematotoxicity
- MTD (maximum tolerated dose) ([1]; 24hr infusion every 3 weeks): 1800 μg/m^2
- RD (recommended dose) ([1]; 24hr infusion every 3 weeks): 1500 μg/m^2
- Grade 2 or greater hyperbilirubinemia ([1]; % of treatment courses at the RD): 30%
- Grade 3 or 4 transaminases, cycles ([1]; at the RD, % of cycles): 38%
- Grade 3 or 4 transaminases, patients ([1]; at the RD, % of patients): 68%
- G3 transaminases ([2]; 29 patients evaluated): 10%
- ALT G2(%) [2, 5]: 9(31) %
- ALT G3(%) [2, 5]: 3(10.3) %
- ALT G4(%) [2, 5]: 0%
- Alk Phos G2(%) [2, 5]: 1(3.4) %
- Alk Phos G3(%) [2, 5]: 2(6.9) %
- Alk Phos G4(%) [2, 5]: 0%
- Bilirubin G2(%) [2, 5]: 0%
- Bilirubin G3(%) [2, 5]: 1(3.4) %
- Bilirubin G4(%) [2, 5]: 0%
- Creatine Kinase G2(%) [2, 5]: 1(3.4) %
- Creatine Kinase G3(%) [2, 5]: 0%
- Creatine Kinase G4(%) [2, 5]: 1(3.4) %
- Creatinine G2(%) [2, 5]: 1(3.4) %
- Creatinine G3(%) [2, 5]: 0%
- Creatinine G4(%) [2, 5]: 0%
- Hemoglobin G2(%) [2, 5]: 9(31) %
- Hemoglobin G3(%) [2, 5]: 1(3.4) %
- Hemoglobin G4(%) [2, 5]: 0%
- Neutrophils G2(%) [2, 5]: 1(3.4) %
- Neutrophils G3(%) [2, 5]: 2(6.9) %
- Neutrophils G4(%) [2, 5]: 1(3.4) %
- Platelets G2(%) [2, 5]: 1(3.4) %
- Platelets G3(%) [2, 5]: 0%
- Platelets G4(%) [2, 5]: 0%
- Grade 3-4 ALT ([2]; Weekly schedule): 10.3%
- Grade 3-4 Bilirubin ([2]; Weekly schedule): 3.4%
- Grade 3-4 Creatinine ([2]; Weekly schedule): 0%
- Grade 3-4 Creatinine Kinase ([2]; Weekly schedule): 3.4%
- Grade 3-4 Hemoglobin ([2]; Weekly schedule): 3.4%
- Grade 3-4 Neutrophils ([2]; Weekly schedule): 10.3%
- Grade 3-4 Platelets ([2]; Weekly schedule): 0%
- Serious renal toxicity (G3-4) ([2]; Weekly schedule): has not been seen
- DLT defining the MTD ([2]; at the 4th level (650)): Long lasting grade 3 neutropenia, and g3 Bilirubin toxicity
- long lasting stabilizations ([2]; ovarian cancer): 2
- minor responses ([2]; patients with sarcoma): 2
- grade 3-4 neutropenia ([2]; per patient, 29 patients evaluated): 10.3%
- long lasting stabilizations ([2]; sarcoma): 2
- reduction of the most frequent toxicities ([2]; weekly schedule vs previous schedules): more than 3 times
- MTD ([2]; weekly×3/4 weeks, 3 hour infusion): 650 mcg/sm
- recommended dose ([2]; ×3 every 4 weeks, 3 hour infusion): 580 mcg/sm
- sensitivity of progenitor cells [3]: equal sensitivity of erythropoid and myeloid cells
- IC50 [4]: < 1 pM
